Patent US12187717B2, “Compound and use thereof in treating autoimmune diseases” (PARENCHYMA BIOTECH INC., priority 2022, dated 2025)

Experiments:
[1] = test system: DSS-induced inflammatory bowel disease; test: DSS-induced inflammatory bowel disease model: colon mRNA expression (real-time PCR); type: in vivo, C57BL/6 mice
Excerpt: On the 15th day of the experiment, the colon of the mouse was excised to prepare an mRNA sample. In order to extract mRNA, the colon tissue was ground with a homogenizer to acquire a homogeneous suspension. From the homogeneous suspension, mRNA was extracted by a phenol-chloroform sedimentation method using an easy-spin™ (DNA free) total RNA extraction kit (Intron biotechnology, Cat No. 17221). […] Herein, one (1) fold was set using the normal mouse colon as a control.
The real-time polymerase chain reaction was implemented under the conditions of 45 cycles at an annealing temperature of 58° C. and the following primer sequences were used.
The therapeutic effects of Compound 6 and Comparative Example 1 on inflammatory bowel disease were compared. Inflammatory bowel disease was induced in C57BL/6 mice in the same manner as in Example 4, and after oral administration of 10 mg/kg of Compound 6 and Comparative Example 1 to mice, the expression levels of IL-6 and S100a9 mRNA were confirmed in colon tissues.

CYP1A1 = test: Induction of CYP1A1 protein expression in HepG2 (7-ethoxyresorufin/resorufin); type: cell-based, Human; settings: HepG2, 1 μM, 24 hours, vs control (vehicle)
Experimental: After recovering HepG2 under culture in DMEM-fetal bovine serum (FBS) 10% medium and then confirming that the survival rate is 97% or more through trypan blue staining, the recovered product was centrifuged at a speed of 1200 rpm for 5 minutes at room temperature, and the cells were prepared by resuspending them in DMEM-fetal calf serum 10% medium at 1.5×10^5 cells/ml.
Thereafter, the cells were dispensed onto a 96-well plate by 200 μl, and each plate was treated with 3 μl of Compounds 6, 21, 32 and 39 at a concentration of 1 μM diluted in DMEM medium, and then cultured in a cell incubator (5% CO2 incubator) for 24 hours. As a control, 3 μl of 0.05% dimethylsulfoxide (DMSO)/DMEM medium was used for treatment.
After 24 hours, the medium of the plate was discarded, washed with dPBS, treated with 100 μl of 2 μM 7-ethoxyresorufin, and cultured in a cell incubator (5% CO2 incubator) for 30 minutes. After 30 minutes, each 75 μl of fluorescamine (150 μg/ml) was treated, then resorufine excitation was measured at 535 nm and emission at 590 nm. The standard curve was measured and used with 0 to 50 pmol of resorufin solution.
After measurement, all solutions were removed, followed by treating the same with 25 μl of 0.5 M sodium hydroxide (NaOH), the cells were scraped and reacted in a shaker at room temperature for 15 minutes.
After 15 minutes, protein was quantified using a Bradford method, and a value was obtained using a calculation formula (sample resorufin amount/sample protein amount), and then one (1) fold was set using the control.

psoriasis = test: Imiquimod-induced psoriasis model; type: in vivo, BALB/C mice; settings: 10 mg/kg oral daily, 0th to 5th days, back skin on 6th day
Experimental: Hair on the back of female BALB/C mice (8-10 weeks old) was shaved using a shaver and shaving cream, and 62.5 mg of 5% imiquimod cream was applied daily for 6 days to the shaved skin from the next day. Vaseline cream was applied to control mice (Vehicle). In the compound 6 administration group according to an embodiment of the present invention, 10 mg/kg of the compound per mouse was completely added to an ethanol-Cremophor EL mixture (1:1, v/v) corresponding to 15% (v/v) of the administered dose, and then, was diluted in phosphate buffered saline to prepare the final ethanol:Cremophor EL:phosphate buffered saline (7.5:7.5:85, v/v/v), followed by oral administration with 200 μl of the prepared solution daily for a total of 6 times from the 0th to the 5th days of the experiment. On the 6th day of the experiment, back skin tissues of mice were obtained to perform histology and mRNA experiments.

IL-6 = IL-6 production of A549 epithelial cells by IL-1β stimulation; type: cell-based, Human; settings: A549, 5 μM, 48 hours then IL-1β 24 hours, vs control
Experimental: In order to assess the inhibitory effects of production of IL-6 by the compounds of the present invention prepared as above, an IL-6 production test of epithelial cells by stimulation of IL-1β was performed.
After recovering A549 cells under culture in DMEM-fetal bovine serum (FBS) 10% medium and confirming that the survival rate is 97% or more through trypan blue staining, the recovered product was centrifuged at a speed of 1200 rpm for 5 minutes at room temperature, and the cells were prepared by resuspending them in DMEM-10% fetal bovine serum medium at 1×10^6 cells/3 ml. Thereafter, the cells were dispensed by 3 ml onto a 60 mm plate, and each dish was treated with 50 μl of Compounds 6, 9, 21, 32 and 39 at a concentration of 5 μM diluted in DMEM medium, and then cultured in a cell incubator (5% CO2 incubator) for 48 hours. Then, the cells were treated with 50 μl of human recombinant IL-1β at a concentration of 12.5 ng/ml diluted in DMEM medium, followed by culturing the same in a cell incubator (5% CO2 incubator) for 24 hours. As a control, 50 μl of 0.05% dimethylsulfoxide (DMSO)/DMEM medium was used for treatment.
The cultured cells were recovered to prepare an mRNA sample. […] From the separated RNA, cDNA was synthesized by reverse transcription, and the expression of CYP1A1 was confirmed through a real-time polymerase chain reaction (PCR) using iQ SYBR-Green Supermix (Bio-rad) in a CFX96 (Bio-rad) detection system. […] Herein, one (1) fold was set using the control.
The real-time polymerase chain reaction was performed under the conditions of 45 cycles at an annealing temperature of 58° C., wherein the following primer sequences were used.

[2] = pH-metric solubility and logP (SIRIUS T3); type: physicochemical
Experimental: After dissolving Compound 6 in ethanol, the solubility was measured and analyzed using a SIRIUS T3 machine.

[3] = 10 mg/kg oral daily, 15th day, compared to solvent control
[4] = 10 mg/kg oral, compared to Comparative Example 1

- CYP1A1 protein expression level (CYP1A1): significantly higher
- pH-metric solubility molarity relative to Comparative Example 1 ([2]; Compound 6 vs Comparative Example 1): about 3.92 times
- logP ([2]; pH-metric results, SIRIUS T3): 3.04
- pH-metric solubility, Molarity ([2]; pH-metric results, SIRIUS T3): 14.3 μM
- pH-metric solubility, Weight/ml ([2]; pH-metric results, SIRIUS T3): 6.104 μg/ml
SMILES: O=C(Cc1c[nH]c2ccc(Cl)cc12)Nc1nc2ccc(N3CCOCC3)cc2s1 [Compound 6, 2-(5-chloro-1H-indol-3-yl)-N-(6-morpholinobenzo[d]thiazol-2-yl)acetamide]
- Foxp3 expression level in colon lesions [1, 3]: significantly increased
- IL-1β expression level in colon lesions [1, 3]: significantly reduced
- IL-6 expression level in colon lesions [1, 3]: significantly reduced
- IL-10 expression level in colon lesions [1, 3]: significantly increased
- IL-17A expression level in colon lesions [1, 3]: significantly reduced
- Muc2 expression level in colon lesions [1, 3]: significantly increased
- Reg3b expression level in colon lesions [1, 3]: significantly increased
- S100a8 expression level in colon lesions [1, 3]: significantly reduced
- S100a9 expression level in colon lesions [1, 3]: significantly reduced
- TNF-α expression level in colon lesions [1, 3]: significantly reduced
- IL-6 mRNA expression level in colon tissues [1, 4]: significantly decreased
- S100a9 mRNA expression level in colon tissues [1, 4]: significantly decreased
- Foxp3 expression in skin lesions (psoriasis): markedly increased
- IL-10 expression in skin lesions (psoriasis): markedly increased
- IL-17a mRNA expression level in skin lesions (psoriasis): significantly reduced
- S100a8 mRNA expression level in skin lesions (psoriasis): significantly reduced
- epithelial thickness (psoriasis): significantly reduced
- IL-6 production of A549 by IL-1β stimulation (IL-6): significantly reduced
